Measurements as given in PubChem BioAssay (NCI).
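Growth conditions: 96-well plates. Treatment: test compound, 48 hours, 5 concentrations. Analysis: linear interpolation between bracketing concentrations; unreached endpoints set to highest concentration. GI50 is the concentration that inhibits growth by half. At the TGI there is no net growth.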

Legend:
Experiment in all cases: inhibition of tumour cell growth, NCI panel, 48 h
MDA-MB-435 = tested on: MDA-MB-435
786-0 renal = tested on: 786-0 renal
NCI-H23 lung = tested on: NCI-H23 lung
NCI-H460 lung = tested on: NCI-H460 lung
SNB-75 CNS = tested on: SNB-75 CNS
SNB-19 CNS = tested on: SNB-19 CNS
SK-MEL-28 melanoma = tested on: SK-MEL-28 melanoma
SF-295 CNS = tested on: SF-295 CNS
UACC-257 melanoma = tested on: UACC-257 melanoma
HL-60(TB) leukemia = tested on: HL-60(TB) leukemia
CCRF-CEM leukemia = tested on: CCRF-CEM leukemia
SK-OV-3 ovarian = tested on: SK-OV-3 ovarian
MOLT-4 leukemia = tested on: MOLT-4 leukemia
COLO 205 colon = tested on: COLO 205 colon
OVCAR-4 ovarian = tested on: OVCAR-4 ovarian
SK-MEL-2 melanoma = tested on: SK-MEL-2 melanoma
M14 melanoma = tested on: M14 melanoma
SR leukemia = tested on: SR leukemia
OVCAR-8 ovarian = tested on: OVCAR-8 ovarian
A498 renal = tested on: A498 renal
IGROV1 ovarian = tested on: IGROV1 ovarian
OVCAR-5 ovarian = tested on: OVCAR-5 ovarian
BT-549 breast = tested on: BT-549 breast
SK-MEL-5 melanoma = tested on: SK-MEL-5 melanoma
SN12C renal = tested on: SN12C renal
RXF 393 renal = tested on: RXF 393 renal
K-562 leukemia = tested on: K-562 leukemia
SF-268 CNS = tested on: SF-268 CNS
HOP-92 NSCLC = tested on: HOP-92 NSCLC
CAKI-1 renal = tested on: CAKI-1 renal
LOX IMVI melanoma = tested on: LOX IMVI melanoma
U251 CNS = tested on: U251 CNS
HT29 colon = tested on: HT29 colon
MCF7 breast = tested on: MCF7 breast
MALME-3M melanoma = tested on: MALME-3M melanoma
TK-10 renal = tested on: TK-10 renal
MDA-MB-231 breast = tested on: MDA-MB-231 breast
PC-3 prostate = tested on: PC-3 prostate
KM12 colon = tested on: KM12 colon
T-47D breast = tested on: T-47D breast
OVCAR-3 ovarian = tested on: OVCAR-3 ovarian
ACHN renal = tested on: ACHN renal
HOP-62 NSCLC = tested on: HOP-62 NSCLC
HCC-2998 colon = tested on: HCC-2998 colon
HCT-15 colon = tested on: HCT-15 colon
HS 578T breast = tested on: HS 578T breast
NCI-H522 lung = tested on: NCI-H522 lung
A549 NSCLC = tested on: A549 NSCLC
NCI/ADR-RES ovarian = tested on: NCI/ADR-RES ovarian
RPMI-8226 leukemia = tested on: RPMI-8226 leukemia
UACC-62 melanoma = tested on: UACC-62 melanoma
SF-539 CNS = tested on: SF-539 CNS
NCI-H226 lung = tested on: NCI-H226 lung
SW-620 colon = tested on: SW-620 colon
EKVX NSCLC = tested on: EKVX NSCLC
UO-31 renal = tested on: UO-31 renal
HCT-116 colon = tested on: HCT-116 colon
DU-145 prostate = tested on: DU-145 prostate

Cc1cc(-c2ccco2)cc(C)c1/C=C/c1cncc(-c2nn[nH]n2)c1
GI50 (MDA-MB-435): > 25 µM | TGI (MDA-MB-435): > 25 µM | GI50 (786-0 renal): > 25 µM | TGI (786-0 renal): > 25 µM | GI50 (NCI-H23 lung): > 25 µM | TGI (NCI-H23 lung): > 25 µM | GI50 (NCI-H460 lung): > 25 µM | TGI (NCI-H460 lung): > 25 µM | GI50 (SNB-75 CNS): > 25 µM | TGI (SNB-75 CNS): > 25 µM | GI50 (SNB-19 CNS): > 25 µM | TGI (SNB-19 CNS): > 25 µM | GI50 (SK-MEL-28 melanoma): > 25 µM | TGI (SK-MEL-28 melanoma): > 25 µM | GI50 (SF-295 CNS): > 25 µM | TGI (SF-295 CNS): > 25 µM | GI50 (UACC-257 melanoma): > 25 µM | TGI (UACC-257 melanoma): > 25 µM | GI50 (HL-60(TB) leukemia): > 25 µM | TGI (HL-60(TB) leukemia): > 25 µM | GI50 (CCRF-CEM leukemia): > 25 µM | TGI (CCRF-CEM leukemia): > 25 µM | GI50 (SK-OV-3 ovarian): > 25 µM | TGI (SK-OV-3 ovarian): > 25 µM | GI50 (MOLT-4 leukemia): > 25 µM | TGI (MOLT-4 leukemia): > 25 µM | GI50 (COLO 205 colon): > 25 µM | TGI (COLO 205 colon): > 25 µM | GI50 (OVCAR-4 ovarian): > 25 µM | TGI (OVCAR-4 ovarian): > 25 µM | GI50 (SK-MEL-2 melanoma): > 25 µM | TGI (SK-MEL-2 melanoma): > 25 µM | GI50 (M14 melanoma): > 25 µM | TGI (M14 melanoma): > 25 µM | GI50 (SR leukemia): > 25 µM | TGI (SR leukemia): > 25 µM | GI50 (OVCAR-8 ovarian): > 25 µM | TGI (OVCAR-8 ovarian): > 25 µM | GI50 (A498 renal): > 25 µM | TGI (A498 renal): > 25 µM | GI50 (IGROV1 ovarian): > 25 µM | TGI (IGROV1 ovarian): > 25 µM | GI50 (OVCAR-5 ovarian): > 25 µM | TGI (OVCAR-5 ovarian): > 25 µM | GI50 (BT-549 breast): > 25 µM | TGI (BT-549 breast): > 25 µM | GI50 (SK-MEL-5 melanoma): > 25 µM | TGI (SK-MEL-5 melanoma): > 25 µM | GI50 (SN12C renal): > 25 µM | TGI (SN12C renal): > 25 µM | GI50 (RXF 393 renal): > 25 µM | TGI (RXF 393 renal): > 25 µM | GI50 (K-562 leukemia): > 25 µM | TGI (K-562 leukemia): > 25 µM | GI50 (SF-268 CNS): > 25 µM | TGI (SF-268 CNS): > 25 µM | GI50 (HOP-92 NSCLC): > 25 µM | TGI (HOP-92 NSCLC): > 25 µM | GI50 (CAKI-1 renal): > 25 µM | TGI (CAKI-1 renal): > 25 µM | GI50 (LOX IMVI melanoma): > 25 µM | TGI (LOX IMVI melanoma): > 25 µM | GI50 (U251 CNS): > 25 µM | TGI (U251 CNS): > 25 µM | GI50 (HT29 colon): > 25 µM | TGI (HT29 colon): > 25 µM | GI50 (MCF7 breast): > 25 µM | TGI (MCF7 breast): > 25 µM | GI50 (MALME-3M melanoma): > 25 µM | TGI (MALME-3M melanoma): > 25 µM | GI50 (TK-10 renal): > 25 µM | TGI (TK-10 renal): > 25 µM | GI50 (MDA-MB-231 breast): > 25 µM | TGI (MDA-MB-231 breast): > 25 µM | GI50 (PC-3 prostate): > 25 µM | TGI (PC-3 prostate): > 25 µM | GI50 (KM12 colon): > 25 µM | TGI (KM12 colon): > 25 µM | GI50 (T-47D breast): > 25 µM | TGI (T-47D breast): > 25 µM | GI50 (OVCAR-3 ovarian): > 25 µM | TGI (OVCAR-3 ovarian): > 25 µM | GI50 (ACHN renal): > 25 µM | TGI (ACHN renal): > 25 µM | GI50 (HOP-62 NSCLC): > 25 µM | TGI (HOP-62 NSCLC): > 25 µM | GI50 (HCC-2998 colon): > 25 µM | TGI (HCC-2998 colon): > 25 µM | GI50 (HCT-15 colon): > 25 µM | TGI (HCT-15 colon): > 25 µM | GI50 (HS 578T breast): > 25 µM | TGI (HS 578T breast): > 25 µM | GI50 (NCI-H522 lung): > 25 µM | TGI (NCI-H522 lung): > 25 µM | GI50 (A549 NSCLC): > 25 µM | TGI (A549 NSCLC): > 25 µM | GI50 (NCI/ADR-RES ovarian): > 25 µM | TGI (NCI/ADR-RES ovarian): > 25 µM | GI50 (RPMI-8226 leukemia): > 25 µM | TGI (RPMI-8226 leukemia): > 25 µM | GI50 (UACC-62 melanoma): > 25 µM | TGI (UACC-62 melanoma): > 25 µM | GI50 (SF-539 CNS): > 25 µM | TGI (SF-539 CNS): > 25 µM | GI50 (NCI-H226 lung): > 25 µM | TGI (NCI-H226 lung): > 25 µM | GI50 (SW-620 colon): > 25 µM | TGI (SW-620 colon): > 25 µM | GI50 (EKVX NSCLC): > 25 µM | TGI (EKVX NSCLC): > 25 µM | GI50 (UO-31 renal): > 25 µM | TGI (UO-31 renal): > 25 µM | GI50 (HCT-116 colon): > 25 µM | TGI (HCT-116 colon): > 25 µM | GI50 (DU-145 prostate): > 25 µM | TGI (DU-145 prostate): > 25 µM

Clc1ccc(Cn2cc(/C=N/n3cnnc3)c3ccccc32)cc1
TGI (MDA-MB-435): > 100 µM | TGI (786-0 renal): > 100 µM | TGI (NCI-H23 lung): > 100 µM | TGI (NCI-H460 lung): 75 µM | TGI (SNB-75 CNS): 68.5 µM | TGI (SNB-19 CNS): > 100 µM | TGI (SK-MEL-28 melanoma): > 100 µM | TGI (SF-295 CNS): > 100 µM | TGI (UACC-257 melanoma): > 100 µM | TGI (HL-60(TB) leukemia): > 100 µM | TGI (CCRF-CEM leukemia): > 100 µM | TGI (SK-OV-3 ovarian): > 100 µM | TGI (MOLT-4 leukemia): > 100 µM | TGI (COLO 205 colon): > 100 µM | TGI (OVCAR-4 ovarian): > 100 µM | TGI (SK-MEL-2 melanoma): 82.9 µM | TGI (M14 melanoma): > 100 µM | TGI (SR leukemia): > 100 µM | TGI (OVCAR-8 ovarian): > 100 µM | TGI (A498 renal): 4.34 µM | TGI (IGROV1 ovarian): > 100 µM | TGI (OVCAR-5 ovarian): 42.5 µM | TGI (BT-549 breast): > 100 µM | TGI (SK-MEL-5 melanoma): > 100 µM | TGI (SN12C renal): > 100 µM | TGI (RXF 393 renal): 46.8 µM | TGI (K-562 leukemia): > 100 µM | TGI (SF-268 CNS): > 100 µM | TGI (HOP-92 NSCLC): 68.3 µM | TGI (CAKI-1 renal): > 100 µM | TGI (LOX IMVI melanoma): > 100 µM | TGI (U251 CNS): > 100 µM | TGI (HT29 colon): > 100 µM | TGI (MCF7 breast): > 100 µM | TGI (MALME-3M melanoma): > 100 µM | TGI (TK-10 renal): 28.7 µM | TGI (MDA-MB-231 breast): 74.5 µM | TGI (PC-3 prostate): > 100 µM | TGI (KM12 colon): > 100 µM | TGI (T-47D breast): 52.3 µM | TGI (OVCAR-3 ovarian): > 100 µM | TGI (ACHN renal): > 100 µM | TGI (HOP-62 NSCLC): > 100 µM | TGI (HCC-2998 colon): 31.4 µM | TGI (HCT-15 colon): > 100 µM | TGI (HS 578T breast): > 100 µM | TGI (NCI-H522 lung): > 100 µM | TGI (A549 NSCLC): > 100 µM | TGI (NCI/ADR-RES ovarian): > 100 µM | TGI (RPMI-8226 leukemia): > 100 µM | TGI (UACC-62 melanoma): > 100 µM | TGI (SF-539 CNS): > 100 µM | TGI (NCI-H226 lung): 4.14 µM | TGI (SW-620 colon): > 100 µM | TGI (EKVX NSCLC): > 100 µM | TGI (UO-31 renal): > 100 µM | TGI (HCT-116 colon): > 100 µM | TGI (DU-145 prostate): > 100 µM
